Assay results reported in US20260225997A1, “IONIZABLE AMINE LIPIDS” (Intellia Therapeutics, Inc., priority 2018, published 2026).
Read-outs that look alike come from different tables or passages of the source.

How the values were obtained:
[1] = pKa measurement of unformulated amine lipid (fluorescence, method of Jayaraman et al.); assay type: physicochemical; conditions: 100 μM in 0.1 M phosphate buffer pH 4.5-9.0
Experimental: The pKa of each amine lipid was determined according to the method in Jayaraman, et al. (Angewandte Chemie, 2012) with the following adaptations. […] Lipid was diluted to 100 μM in 0.1 M phosphate buffer (Boston Bioproducts) where the pH ranged from 4.5-9.0. Fluorescence intensity was measured using excitation and emission wavelengths of 321 nm and 448 nm.

B2M = B2M editing in mouse liver by NGS after i.v. LNP delivery of Cas9 mRNA and sgRNA; assay type: in vivo; conditions: Example 52: LNP single dose 0.1 mg/kg i.v., CD-1 female mice, sgRNA G650:Cas9 mRNA 1:1, NGS
Experimental: Preparations of various LNP compositions were prepared with amine lipids. In assays for percent liver editing in mice, Cas9 mRNA and chemically modified sgRNA were formulated in LNPs, at either a 1:1 w/w ratio or a 1:2 w/w ratio. LNPs are formulated with a composition of a given ionizable lipid (e.g. an amine lipid), DSPC, cholesterol, and PEG-2k-DMG, with a 6.0 N:P ratio.
LNPs were administered to mice by a single dose at 0.1 mg/kg, unless otherwise noted and genomic DNA was isolated for NGS analysis as described below.
CD-1 female mice, ranging from 6-10 weeks of age were used in each study. Animals were weighed and grouped according to body weight for preparing dosing solutions based on group average weight. LNPs were dosed via the lateral tail vein in a volume of 0.2 mL per animal (approximately 10 mL per kilogram body weight). The animals were periodically observed post dose for adverse effects for at least 24 hours post dose. Animals were euthanized at 6 or 7 days by exsanguination via cardiac puncture under isoflurane anesthesia. Blood was collected into serum separator tubes or into tubes containing buffered sodium citrate for plasma as described herein. For studies involving in vivo editing, liver tissue was collected from each animal for DNA extraction and analysis.
Cohorts of mice were measured for liver editing by Next-Generation Sequencing (NGS).
In brief, to quantitatively determine the efficiency of editing at the target location in the genome, genomic DNA was isolated and deep sequencing was utilized to identify the presence of insertions and deletions introduced by gene editing.
PCR primers were designed around the target site (e.g., B2M), and the genomic area of interest was amplified. Additional PCR was performed according to the manufacturer's protocols (Illumina) to add the necessary chemistry for sequencing. The amplicons were sequenced on an Illumina MiSeq instrument. The reads were aligned to the […] after eliminating those having low quality scores. The resulting files containing the reads were mapped to the reference genome (BAM files), where reads that overlapped the target region of interest were selected and the number of wild type reads versus the number of reads which contain an insertion, substitution, or deletion was calculated.
The editing percentage (e.g., the “editing efficiency” or “percent editing”) is defined as the total number of sequence reads with insertions or deletions over the total number of sequence reads, including wild type.
CD-1 female mice were dosed i.v. at 0.1 mpk or 0.3 mpk. […] For animals dosed with G282 targeting TTR, blood and the liver were collected and serum TTR and editing were measured. For animals dosed with G650 targeting B2M, liver was collected and editing was measured.

[2] = LNP average particle size and polydispersity by dynamic light scattering (Malvern Zetasizer); assay type: physicochemical
Source text: The LNPs have a size of about 1 to about 1,000 nm, about 10 to about 500 nm, about 20 to about 500 nm, in a sub-embodiment about 50 to about 400 nm, in a sub-embodiment about 50 to about 300 nm, in a sub-embodiment about 50 to about 200 nm, and in a sub-embodiment about 50 to about 150 nm, and in another sub-embodiment about 60 to about 120 nm. Preferably, the LNPs have a size from about 60 nm to about 100 nm. The average sizes (diameters) of the fully formed LNP, may be measured by dynamic light scattering on a Malvern Zetasizer. The LNP sample is diluted in phosphate buffered saline (PBS) so that the count rate is approximately 200-400 kcps. The data is presented as a weighted average of the intensity measure.
The LNPs disclosed herein have a size (e.g. Z-average diameter) of about 1 to about 250 nm. In some embodiments, the LNPs have a size of about 10 to about 200 nm. In further embodiments, the LNPs have a size of about 20 to about 150 nm. In some embodiments, the LNPs have a size of about 50 to about 150 nm. In some embodiments, the LNPs have a size of about 50 to about 100 nm. In some embodiments, the LNPs have a size of about 50 to about 120 nm. In some embodiments, the LNPs have a size of about 60 to about 100 nm. In some embodiments, the LNPs have a size of about 75 to about 150 nm. In some embodiments, the LNPs have a size of about 75 to about 120 nm. In some embodiments, the LNPs have a size of about 75 to about 100 nm. Unless indicated otherwise, all sizes referred to herein are the average sizes (diameters) of the fully formed nanoparticles, as measured by dynamic light scattering on a Malvern Zetasizer. The nanoparticle sample is diluted in phosphate buffered saline (PBS) so that the count rate is approximately 200-400 kcps. The data is presented as a weighted-average of the intensity measure (Z-average diameter).
Dynamic Light Scattering (“DLS”) is used to characterize the polydispersity index (“pdi”) and size of the LNPs of the present disclosure. DLS measures the scattering of light that results from subjecting a sample to a light source. PDI, as determined from DLS measurements, represents the distribution of particle size (around the mean particle size) in a population, with a perfectly uniform population having a PDI of zero.
LNP compositions are analyzed for average particle size, polydispersity index (pdi), total RNA content, encapsulation efficiency of RNA, and zeta potential. LNP compositions may be further characterized by lipid analysis, AF4-MALS, NTA, and/or cryo-EM. Average particle size and polydispersity are measured by dynamic light scattering (DLS) using a Malvern Zetasizer DLS instrument. LNP samples were diluted with PBS buffer prior to being measured by DLS. Z-average diameter which is an intensity-based measurement of average particle size was reported along with number average diameter and pdi. A Malvern Zetasizer instrument is also used to measure the zeta potential of the LNP. Samples are diluted 1:17 (50 μL into 800 μL) in 0.1×PBS, pH 7.4 prior to measurement.

[3] = RNA encapsulation efficiency of LNP (Ribogreen fluorescence assay); assay type: physicochemical; conditions: N:P 6.0
Experimental: A fluorescence-based assay (Ribogreen®, ThermoFisher Scientific) is used to determine total RNA concentration and free RNA. Encapsulation efficiency is calculated as (Total RNA−Free RNA)/Total RNA. LNP samples are diluted appropriately with 1× TE buffer containing 0.2% Triton-X 100 to determine total RNA or 1× TE buffer to determine free RNA. Standard curves are prepared by utilizing the starting RNA solution used to make the compositions and diluted in 1× TE buffer+/−0.2% Triton-X 100. Diluted RiboGreen® dye (according to the manufacturer's instructions) is then added to each of the standards and samples and allowed to incubate for approximately 10 minutes at room temperature, in the absence of light. A SpectraMax M5 Microplate Reader (Molecular Devices) is used to read the samples with excitation, auto cutoff and emission wavelengths set to 488 nm, 515 nm, and 525 nm respectively. Total RNA and free RNA are determined from the appropriate standard curves.
Encapsulation efficiency is calculated as (Total RNA−Free RNA)/Total RNA. The same procedure may be used for determining the encapsulation efficiency of a DNA-based cargo component. For single-strand DNA Oligreen Dye may be used, and for double-strand DNA, Picogreen Dye.

TTR [4] = experiment: TTR editing in mouse liver by NGS after i.v. LNP delivery of Cas9 mRNA and sgRNA; assay type: in vivo; conditions: CD-1 female mice
Outline: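 Cas9 mRNA and chemically modified sgRNA were co-formulated in LNPs made of an ionizable amine lipid, DSPC, cholesterol and PEG-2k-DMG at a 6.0 N:P ratio. CD-1 female mice aged 6-10 weeks received tail-vein injections of 0.2 mL. Liver genomic DNA was then amplified around the target site and sequenced on an Illumina MiSeq, with editing calculated as indel-containing reads over total reads.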

TTR [5] = experiment: Transthyretin (TTR) ELISA analysis of mouse serum after LNP dosing; assay type: in vivo; conditions: for response vs control in vivo at 0.1 mg/kg: Mus musculus, iv, read-out: Serum TTR % TSS
Outline: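 Female CD-1 mice aged 6-10 weeks were grouped by body weight and given LNPs by lateral tail vein injection (0.2 mL per animal, about 10 mL per kilogram). Mice were bled by cardiac puncture under isoflurane into serum separator tubes. Serum was diluted 10,000-fold for the 0.1 mpk dose, and total TTR was quantified with a Mouse Prealbumin (Transthyretin) ELISA Kit following the kit directions.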

[6] = Table 18, Example 60: LNP, G502 1:2
[7] = Table 18, Example 60: LNP, G502 (TTR), sgRNA:Cas9 mRNA 1:2 w/w
[8] = Example 60: 0.1 mpk i.v., 6 days post-dose, G502 1:2
[9] = 144 h, Example 60: 0.1 mpk i.v., 6 days post-dose, G502 1:2
[10] = Table 14, Example 58: LNP, G282 1:1
[11] = Table 14, Example 58: LNP, G282 (TTR) 1:1 w/w
[12] = Example 58: 0.1 mpk i.v., 6 days post-dose, G282 1:1
[13] = 144 h, Example 58: 0.1 mpk i.v., 6 days post-dose, G282 1:1
[14] = Table 20, Example 61: LNP, G282 1:1
[15] = Example 61: 0.1 mpk i.v., 7 days post-dose, G282 1:1

CCCCCCCCCOC(=O)CCCCCCCN(CCO)CCCCCCCC(OCCCCCCCCC)OCCCCCCCCC [Compound 2]
pKa [1]: 6.23 | Editing (%) of B2M in mouse liver (B2M): 17.7%

CCCCCCCCOC(CCCCCCCN(CCO)CCCCCCCCOC(=O)CCCCCCCC)OCCCCCCCC [Compound 23, 8-((8,8-bis(octyloxy)octyl)(2-hydroxyethyl)amino)octyl nonanoate]
pKa [1]: 6.04 | Num Ave Size (nm) [2, 6]: 61.86 nm | PDI [2, 6]: 0.054 | Z-Ave Size (nm) [2, 6]: 79.04 nm | Encapsulation (%) [3, 7]: 93% | Editing Mean % Indel (TTR [4]; [8]): 53.6% | Serum TTR (TTR [5]; [8]): 307 µg/mL | response vs control in vivo at 0.1 mg/kg (TTR [5]; [9]): 22%

CCCCCCCCCOC(=O)CCCCCCCN(CCO)CCCCCCCCCC(OCCCCCCCCC)OCCCCCCCCC [Compound 6, 8-[10,10-di(nonoxy)decyl-(2-hydroxyethyl)amino]octanoate]
pKa [1]: 6.3 | Editing (%) of B2M in mouse liver (B2M): 8.2%

CCCCCCCCCCC(=O)OCCCCCCN(CCO)CCCCCCCC(OCCCCCCCC)OCCCCCCCC [Compound 22, 6-((8,8-bis(octyloxy)octyl)(2-hydroxyethyl)amino)hexyl undecanoate]
pKa [1]: 6.18 | Num Ave Size (nm) [2, 6]: 66.68 nm | PDI [2, 6]: 0.029 | Z-Ave Size (nm) [2, 6]: 82.91 nm | Encapsulation (%) [3, 7]: 98% | Editing Mean % Indel (TTR [4]; [8]): 45.6% | Serum TTR (TTR [5]; [8]): 410 µg/mL | response vs control in vivo at 0.1 mg/kg (TTR [5]; [9]): 29%

CCCCCCCCCCCOC(=O)CCCCCN(CCO)CCCCCCCC(OCCCCCCCC)OCCCCCCCC [Compound 13, undecyl 6-((8,8-bis(octyloxy)octyl)(2-hydroxyethyl)amino)hexanoate]
pKa [1]: 6.35 | Num Ave Size (nm) [2, 10]: 63.34 nm | PDI [2, 10]: 0.04 | Z-Ave Size (nm) [2, 10]: 77.34 nm | Encapsulation (%) [3, 11]: 98% | Editing Mean % Indel (TTR [4]; [12]): 22.6% | Serum TTR (TTR [5]; [12]): 703 µg/mL | response vs control in vivo at 0.1 mg/kg (TTR [5]; [13]): 71%

CCCCCCCCCOC(=O)CCCCCCCN(CCO)CCCCCCCCCC(CCCCCCCC)CCCCCCCC [Compound 26, nonyl 8-((2-hydroxyethyl)(10-octyloctadecyl)amino)octanoate, reference compound]
pKa [1]: 6.19 | Num Ave Size (nm) [2, 14]: 48.37 nm | PDI [2, 14]: 0.07 | Z-Ave Size (nm) [2, 14]: 63.25 nm | Encapsulation (%) ([3]; Table 20, Example 61: LNP, G282 (TTR) 1:1 w/w): 99% | Editing Mean % Indel (TTR [4]; [15]): 2.6% | Serum TTR (TTR [5]; [15]): 979 µg/mL | response vs control in vivo at 0.1 mg/kg (TTR [5]; 168 h, Example 61: 0.1 mpk i.v., 7 days post-dose, G282 1:1): 76%

CCCCCC/C=C\COC(=O)CCCCCCCN(CCO)CCCCCCCC(OCCCCCCCC)OCCCCCCCC [Compound 16, (Z)-non-2-en-1-yl 8-((8,8-bis(octyloxy)octyl)(2-hydroxyethyl)amino)octanoate]
pKa [1]: 6.34 | Num Ave Size (nm) [2, 10]: 66.66 nm | PDI [2, 10]: 0.132 | Z-Ave Size (nm) [2, 10]: 109.5 nm | Encapsulation (%) [3, 11]: 78% | Editing Mean % Indel (TTR [4]; [12]): 35.2% | Serum TTR (TTR [5]; [12]): 516 µg/mL | response vs control in vivo at 0.1 mg/kg (TTR [5]; [13]): 52%
